Reference: US20230203026A1, “PESTICIDAL COMPOSITIONS AND METHODS” (CORTEVA AGRISCIENCE LLC, priority 2017, published 2023)

Assays:
[1] = system: Cabbage Looper (Trichloplusia ni, TRIPNI) ("CL"); assay: Insecticidal test for cabbage looper, 128-well diet tray assay; assay type: in vivo; details: Trichoplusia ni, 168 h; 50 μg/cm^2 of test compound on artificial diet; second instar CL larvae; 25° C.; five to seven days; average of eight wells; read-out: CL % Control (or Mortality) rating
Experimental: Insecticidal Test for Cabbage Looper (Trichloplusia ni, TRIPNI) (“CL”)
(§1) Bioassays on cabbage looper (CL; Trichloplusia ni: Lepidoptera) are conducted using a 128-well diet tray assay. One to five second instar CL larvae are placed in each well (3 mL) of the diet tray that had been previously filled with 1 mL of artificial diet to which 50 μg/cm^2 of the test compound (dissolved in 50 μL of 90:10 acetone-water mixture) had been applied (to each of eight wells) and then allowed to dry. Trays are covered with a clear self-adhesive cover, vented to allow gas exchange, and held at 25° C., 14:10 light-dark for five to seven days. Percent mortality is recorded for the larvae in each well; activity in the eight wells is then averaged.

[2] = system: beet armyworm (Spodoptera exigua, LAPHEG) ("BAW"); assay: Insecticidal test for beet armyworm, 128-well diet tray assay; assay type: in vivo; details: 168 h, 50 μg/cm^2 of test compound on artificial diet, second instar BAW larvae, 25° C., five to seven days, average of eight wells, read-out: BAW % Control (or Mortality) rating
Experimental: Insecticidal test for beet armyworm (Spodoptera exigua, LAPHEG) (“BAW”)
as §1, with “beet armyworm (BAW; Spodoptera exigua:” for “cabbage looper (CL; Trichloplusia ni:”, “BAW” for “CL”

Cc1ccc(C(C)C)c(N2C(=O)CS/C2=N\C(=O)ONCc2ccc(-c3ncn(-c4ccc(OC(F)(F)F)cc4)n3)cc2)c1 [A40, (Z)-3-(2-isopropyl-5-methylphenyl)-2-(((((4-(1-(4-(trifluoromethoxy)phenyl)-1H-1,2,4-triazol-3-yl)benzyl)amino)oxy)carbonyl)imino)thiazolidin-4-one]
mortality at 50 µg/cm2 [1]: 50 to 100% | mortality at 50 µg/cm2 [2]: 50 to 100%

Cc1ccc(C(C)C)c(N2C(=O)CS/C2=N\C(=O)NOC(C)c2ccc(-c3ncn(-c4ccc(OC(F)(F)F)cc4)n3)cc2)c1 (stereo not shown) [A17, (Z)-1-(3-(2-Isopropyl-5-methylphenyl)-4-oxothiazolidin-2-ylidene)-3-(1-(4-(1-(4-(trifluoromethoxy)phenyl)-1H-1,2,4-triazol-3-yl)phenyl)ethoxy)urea]
mortality at 50 µg/cm2 [1]: 50 to 100% | mortality at 50 µg/cm2 [2]: 50 to 100%

Cc1ccc(OCC(F)(F)F)c(N2C(=O)CS/C2=N\C(=O)NNC(C)c2ccc(-c3ncn(-c4ccc(OC(F)(F)F)cc4)n3)cc2)c1 (stereo not shown) [A6, (Z)—N-(3-(5-Methyl-2-(2,2,2-trifluoroethoxy)phenyl)-4-oxothiazolidin-2-ylidene)-2-(1-(4-(1-(4-(trifluoromethoxy)phenyl)-1H-1,2,4-triazol-3-yl)phenyl)ethyl)hydrazine-1-carboxamide]
mortality at 50 µg/cm2 [1]: 50 to 100% | mortality at 50 µg/cm2 [2]: 50 to 100%

Cc1ccc(C(C)C)c(N2C(=O)CS/C2=N\C(=O)NNC(C)c2ccc(-c3ncn(-c4ccc(OC(F)(F)F)cc4)n3)cc2)c1 (stereo not shown) [A9, (Z)—N-(3-(2-Isopropyl-5-methylphenyl)-4-oxothiazolidin-2-ylidene)-2-(1-(4-(1-(4-(trifluoromethoxy)phenyl)-1H-1,2,4-triazol-3-yl)phenyl)ethyl)hydrazine-1-carboxamide]
mortality at 50 µg/cm2 [1]: 50 to 100% | mortality at 50 µg/cm2 [2]: 50 to 100%

CC(NNC(=O)/N=C1\SCC(=O)N1c1cc(Cl)ccc1OC(F)(F)F)c1ccc(-c2ncn(-c3ccc(OC(F)(F)F)cc3)n2)cc1 (stereo not shown) [A5, (Z)—N-(3-(5-chloro-2-(trifluoromethoxy)phenyl)-4-oxothiazolidin-2-ylidene)-2-(1-(4-(1-(4-(trifluoromethoxy)phenyl)-1H-1,2,4-triazol-3-yl)phenyl)ethyl)hydrazine-1-carboxamide]
mortality at 50 µg/cm2 [1]: 50 to 100% | mortality at 50 µg/cm2 [2]: 50 to 100%

Cc1ccc(C(C)C)c(N2C(=O)CS/C2=N\C(=O)ON(C)Cc2ccc(-c3ncn(-c4ccc(OC(F)(F)F)cc4)n3)cc2)c1 [A39, (Z)-3-(2-isopropyl-5-methylphenyl)-2-((((methyl(4-(1-(4-(trifluoromethoxy)phenyl)-1H-1,2,4-triazol-3-yl)benzyl)amino)oxy)carbonyl)imino)thiazolidin-4-one]
mortality at 50 µg/cm2 [1]: 50 to 100% | mortality at 50 µg/cm2 [2]: 50 to 100%

Cc1ccc(OCC(F)(F)F)c(N2C(=O)CS/C2=N\C(=O)NN(C)C(C)c2ccc(-c3ncn(-c4ccc(OC(F)(F)F)cc4)n3)cc2)c1 (stereo not shown) [A38, (Z)-2-Methyl-N-(3-(5-methyl-2-(2,2,2-trifluoroethoxy)phenyl)-4-oxothiazolidinylidene)-2-(1-(4-(1-(4-(trifluoromethoxy)phenyl)-1H-1,2,4-triazolyl)phenyl)ethyl)hydrazine-1-carboxamide]
mortality at 50 µg/cm2 [1]: 50 to 100% | mortality at 50 µg/cm2 [2]: 50 to 100%

CC(C)c1ccc(Cl)cc1N1C(=O)CS/C1=N\C(=O)NN(C)C(C)c1ccc(-c2ncn(-c3ccc(OC(F)(F)F)cc3)n2)cc1 (stereo not shown) [A36, (Z)—N-(3-(5-Chloro-2-isopropylphenyl)-4-oxothiazolidin-2-ylidene)-2-methyl-2-(1-(4-(1-(4-(trifluoromethoxy)phenyl)-1H-1,2,4-triazol-3-yl)phenyl)ethyl)hydrazine-1-carboxamide]
mortality at 50 µg/cm2 [1]: 50 to 100% | mortality at 50 µg/cm2 [2]: 50 to 100%

CC(C)c1ccc(Cl)cc1N1C(=O)CS/C1=N\C(=O)NOCc1ccc(-c2ncn(-c3ccc(OC(F)(F)F)cc3)n2)cc1 [A32, (Z)-1-(3-(5-Chloro-2-isopropylphenyl)-4-oxothiazolidin-2-ylidene)-3-((4-(1-(4-(trifluoromethoxy)phenyl)-1H-1,2,4-triazol-3-yl)benzyl)oxy)urea]
mortality at 50 µg/cm2 [1]: 50 to 100% | mortality at 50 µg/cm2 [2]: 50 to 100%

Cc1ccc(C(C)C)c(N2C(=O)CS/C2=N\C(=O)NOCc2ccc(-c3ncn(-c4ccc(OC(F)(F)C(F)(F)F)cc4)n3)cc2)c1 [A33, (Z)-1-(3-(2-Isopropyl-5-methylphenyl)-4-oxothiazolidin-2-ylidene)-3-((4-(1-(4-(perfluoroethoxy)phenyl)-1H-1,2,4-triazol-3-yl)benzyl)oxy)urea]
mortality at 50 µg/cm2 [1]: 50 to 100% | mortality at 50 µg/cm2 [2]: 50 to 100%

Cc1ccc(C(C)C)c(N2C(=O)CS/C2=N\C(=O)NOCc2ccc(-c3ncn(-c4ccc(OC(F)(F)F)cc4)n3)cc2)c1 [A28, (Z)-1-(3-(2-Isopropyl-5-methylphenyl)-4-oxothiazolidin-2-ylidene)-3-((4-(1-(4-(trifluoromethoxy)phenyl)-1H-1,2,4-triazol-3-yl)benzyl)oxy)urea]
mortality at 50 µg/cm2 [1]: 50 to 100% | mortality at 50 µg/cm2 [2]: 50 to 100%
